# From patent publication US20240208992A1, “MACROCYCLES AS CFTR MODULATORS” (Idorsia Pharmaceuticals Ltd, priority 2021, published 2024)
# Molecular target: human F508del-CFTR (Homo sapiens, UniProt P13569, DEL508-508)
# Assay: F508del-CFTR cell surface expression (corrector activity), DiscoveRx ß-galactosidase complementation chemiluminescence assay in recombinant U2OS cell line;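 further: U2OS cells co-expressing ProLink-tagged F508del-CFTR and a membrane-anchored enzyme acceptor, where more surface CFTR restores β-galactosidase activity measured by chemiluminescence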
# Settings: for EC50: EC50, F508del-CFTR cell surface expression; for Emax: U2OS
# [1] = U2OS cells, 16h compound incubation, geomean values
# [2] = in relation to Emax of corrector lumacaftor (=100%), arithmetic mean values
# [3] = U2OS cells, 16h compound incubation, geomean of several measurements
# [4] = in relation to the Emax of the corrector lumacaftor (=100%), U2OS cells, 16h compound incubation, arithmetic mean
# [5] = U2OS cell line, 16h compound incubation, geomean values
# [6] = in relation to the Emax of the corrector lumacaftor (=100%), U2OS cell line, 16h compound incubation, arithmetic mean values
# Sequence of human F508del-CFTR (P13569 with tags, fused parts or gaps DEL508-508): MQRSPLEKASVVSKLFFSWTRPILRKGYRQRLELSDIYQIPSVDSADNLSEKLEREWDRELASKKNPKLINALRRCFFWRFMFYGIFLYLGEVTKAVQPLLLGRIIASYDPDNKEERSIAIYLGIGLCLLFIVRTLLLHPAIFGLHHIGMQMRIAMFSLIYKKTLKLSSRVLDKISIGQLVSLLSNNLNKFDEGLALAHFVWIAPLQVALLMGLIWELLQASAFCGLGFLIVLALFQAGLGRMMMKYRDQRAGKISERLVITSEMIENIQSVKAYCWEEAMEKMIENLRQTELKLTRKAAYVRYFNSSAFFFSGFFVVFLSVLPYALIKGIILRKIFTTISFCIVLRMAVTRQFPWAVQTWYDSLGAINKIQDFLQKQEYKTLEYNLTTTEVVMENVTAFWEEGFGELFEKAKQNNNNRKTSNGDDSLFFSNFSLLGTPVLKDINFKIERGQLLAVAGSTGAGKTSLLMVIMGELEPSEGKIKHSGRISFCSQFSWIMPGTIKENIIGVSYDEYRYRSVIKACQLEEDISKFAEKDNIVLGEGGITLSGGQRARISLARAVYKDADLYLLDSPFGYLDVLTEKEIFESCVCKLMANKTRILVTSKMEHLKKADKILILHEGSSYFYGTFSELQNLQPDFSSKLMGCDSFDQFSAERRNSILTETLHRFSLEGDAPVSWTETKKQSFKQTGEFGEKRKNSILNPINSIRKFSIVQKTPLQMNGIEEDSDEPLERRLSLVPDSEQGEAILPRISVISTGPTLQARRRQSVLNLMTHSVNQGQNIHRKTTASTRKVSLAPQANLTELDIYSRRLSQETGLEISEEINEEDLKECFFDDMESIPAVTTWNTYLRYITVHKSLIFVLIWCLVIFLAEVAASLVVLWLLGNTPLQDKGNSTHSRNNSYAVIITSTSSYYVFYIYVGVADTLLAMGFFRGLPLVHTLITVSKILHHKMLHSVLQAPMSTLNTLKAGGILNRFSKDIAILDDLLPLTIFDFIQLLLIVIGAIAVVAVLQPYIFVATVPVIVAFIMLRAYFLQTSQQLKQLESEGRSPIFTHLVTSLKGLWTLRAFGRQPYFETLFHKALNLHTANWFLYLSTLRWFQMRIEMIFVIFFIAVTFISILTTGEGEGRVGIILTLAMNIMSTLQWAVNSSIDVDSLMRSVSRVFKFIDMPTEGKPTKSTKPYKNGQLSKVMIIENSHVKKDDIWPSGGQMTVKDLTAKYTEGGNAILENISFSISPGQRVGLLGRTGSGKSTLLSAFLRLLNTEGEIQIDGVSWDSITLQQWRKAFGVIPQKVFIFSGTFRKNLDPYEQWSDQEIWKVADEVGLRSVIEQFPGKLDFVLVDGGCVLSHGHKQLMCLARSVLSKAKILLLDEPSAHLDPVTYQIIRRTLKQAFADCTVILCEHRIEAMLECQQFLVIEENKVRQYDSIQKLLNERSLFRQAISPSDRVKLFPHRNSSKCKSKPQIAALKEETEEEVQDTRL
SMILES,EC50 [1],Emax [2],EC50 [5],other results
"COc1cccc(CCNC(=O)[C@@H]2CC(=O)N(C)[C@@H](CC(C)C)C(=O)N3CCCC[C@@H]3C(=O)N[C@H](Cc3ccccc3)COc3ccc4c(c3C(=O)N2)OCC4)c1 [Example 456, (8S,12S,18aR,21R)-21-benzyl-12-isobutyl-N-(3-methoxyphenethyl)-11-methyl-6,10,13,19-tetraoxo-3,4,6,7,8,9,10,11,12,13,16,17,18,18a,19,20,21,22-octadecahydro-15H-benzofuro[7,6-p]pyrido[2,1-f][1]oxa[4,7,10,14]tetraazacycloheptadecine-8-carboxamide]",250 nM,185%,,
"C#Cc1nn(CCNC(=O)[C@@H]2CC(=O)N(C)[C@@H](CC(C)C)C(=O)N3CCCC[C@@H]3C(=O)N[C@H](Cc3ccccc3)COc3cc(C)nc(OC)c3C(=O)N2)nc1C [Example 834, (7S,11S,17aR,20R)-20-benzyl-N-(2-(4-ethynyl-5-methyl-2H-1,2,3-triazol-2-yl)ethyl)-11-isobutyl-4-methoxy-2,10-dimethyl-5,9,12,18-tetraoxo-5,6,7,8,9,10,11,12,15,16,17,17a,18,19,20,21-hexadecahydro-14H-dipyrido[2,1-f:3′,4′-p][1]oxa[4,7,10,14]tetraazacycloheptadecine-7-carboxamide]",,,,EC50 [3]: 240 nM; Emax [4]: 300%
"COc1cccc2c1C(=O)N[C@H](C(=O)NCCc1ccc3c(c1)OCO3)CC(=O)N(C)[C@@H](CC1CCCCC1)C(=O)N(C[C@@H]1CCCCO1)CC(=O)N[C@H](Cc1ccccc1)CO2 [Example 309, (3R,9S,13S)-N-(2-(benzo[d][1,3]dioxol-5-yl)ethyl)-3-benzyl-9-(cyclohexylmethyl)-16-methoxy-10-methyl-5,8,11,15-tetraoxo-7-(((S)-tetrahydro-2H-pyran-2-yl)methyl)-2,3,4,5,6,7,8,9,10,11,12,13,14,15-tetradecahydrobenzo[p][1]oxa[4,7,10,14]tetraazacycloheptadecine-13-carboxamide]",,,456 nM,Emax [6]: 113%
"COc1cccc2c1C(=O)N[C@H](C(=O)NCCc1ccc(-n3cccn3)cc1)CC(=O)N(C)[C@@H](CC(C)C)C(=O)N(CCC1CCCCC1)CC(=O)N[C@H](Cc1ccccc1)CO2 [Example 217, (3R,9S,13S)-N-(4-(1H-pyrazol-1-yl)phenethyl)-3-benzyl-7-(2-cyclohexylethyl)-9-isobutyl-16-methoxy-10-methyl-5,8,11,15-tetraoxo-2,3,4,5,6,7,8,9,10,11,12,13,14,15-tetradecahydrobenzo[p][1]oxa[4,7,10,14]tetraazacycloheptadecine-13-carboxamide]",,,202 nM,Emax [6]: 135%
"COc1cccc(CCNC(=O)[C@@H]2CC(=O)N(C)[C@@H](CC(C)C)C(=O)N3CCNC[C@@H]3C(=O)N[C@H](Cc3ccccc3)COc3ccc4ccccc4c3C(=O)N2)c1 [Example 726, (4aR,7R,18S,22S)-7-benzyl-22-isobutyl-N-(3-methoxyphenethyl)-21-methyl-5,16,20,23-tetraoxo-2,3,4,4a,5,6,7,8,16,17,18,19,20,21,22,23-hexadecahydro-1H-naphtho[1,2-p]pyrazino[2,1-f][1]oxa[4,7,10,14]tetraazacycloheptadecine-18-carboxamide]",624 nM,234%,,
"COc1cccc(CCNC(=O)[C@@H]2CC(=O)N(C)[C@@H](CC3CCCC3)C(=O)N(C[C@@H]3CCCCO3)CC(=O)N[C@H](Cc3ccccc3)COc3ccc4ccccc4c3C(=O)N2)c1 (mixture of isomers) [Example 293, (3RS,7S,13R)-13-benzyl-7-(cyclopentylmethyl)-N-(3-methoxyphenethyl)-6-methyl-1,5,8,11-tetraoxo-9-(((S)-tetrahydro-2H-pyran-2-yl)methyl)-1,2,3,4,5,6,7,8,9,10,11,12,13,14-tetradecahydronaphtho[1,2-p][1]oxa[4,7,10,14]tetraazacycloheptadecine-3-carboxamide]",,,340 nM,
"COc1noc(CCNC(=O)[C@@H]2CC(=O)N(C)[C@@H](CC(C)C)C(=O)N(C)[C@H](Cc3noc(C(C)(C)C)n3)C(=O)N[C@H](Cc3ccccc3)COc3ccc4ncc(F)cc4c3C(=O)N2)n1 [Example 971, (3S,7S,10R,13R)-13-benzyl-10-((5-(tert-butyl)-1,2,4-oxadiazol-3-yl)methyl)-20-fluoro-7-isobutyl-N-(2-(3-methoxy-1,2,4-oxadiazol-5-yl)ethyl)-6,9-dimethyl-1,5,8,11-tetraoxo-1,2,3,4,5,6,7,8,9,10,11,12,13,14-tetradecahydro-[1]oxa[4,7,10,14]tetraazacycloheptadecino[16,17-f]quinoline-3-carboxamide]",,,,EC50 [3]: 163 nM; Emax [4]: 482%
"CC(C)C[C@H]1C(=O)N2CCOC[C@@H]2C(=O)N[C@H](Cc2ccccc2)COc2cnc3ccccc3c2C(=O)N[C@H](C(=O)NCCc2ccccc2F)CC(=O)N1C [Example 50, (9S,13S,19aR,22R)-22-benzyl-N-(2-fluorophenethyl)-13-isobutyl-12-methyl-7,11,14,20-tetraoxo-7,8,9,10,11,12,13,14,16,17,19,19a,20,21,22,23-hexadecahydro-[1,4]oxazino[3′,4′:6,7][1]oxa[4,7,10,14]tetraazacycloheptadecino[17,16-c]quinoline-9-carboxamide]",,,558 nM,Emax [6]: 256%
"Cc1cc(CCNC(=O)[C@@H]2CC(=O)N(C)[C@@H](CC(C)C)C(=O)N(C)[C@H](Cc3nc(-c4ccc(F)cn4)no3)C(=O)N[C@H](Cc3ccccc3)COc3ccc4ncc(F)cc4c3C(=O)N2)on1 [Example 807, (3S,7S,10R,13R)-13-benzyl-20-fluoro-10-((3-(5-fluoropyridin-2-yl)-1,2,4-oxadiazol-5-yl)methyl)-7-isobutyl-6,9-dimethyl-N-(2-(3-methylisoxazol-5-yl)ethyl)-1,5,8,11-tetraoxo-1,2,3,4,5,6,7,8,9,10,11,12,13,14-tetradecahydro-[1]oxa[4,7,10,14]tetraazacycloheptadecino[16,17-f]quinoline-3-carboxamide]",,,,EC50 [3]: 206 nM; Emax [4]: 358%
"COc1cccc(CCNC(=O)[C@@H]2CC(=O)N(C)[C@@H](CC(C)C)C(=O)N(C)CC(=O)N[C@H](Cc3ccccc3)COc3ccc(C)cc3C(=O)N2)c1 [Example 230, (3R,9S,13S)-3-benzyl-9-isobutyl-N-(3-methoxyphenethyl)-7,10,17-trimethyl-5,8,11,15-tetraoxo-2,3,4,5,6,7,8,9,10,11,12,13,14,15-tetradecahydrobenzo[p][1]oxa[4,7,10,14]tetraazacycloheptadecine-13-carboxamide]",,,482 nM,Emax [6]: 103%
"Cc1cc2ccc3c(c2o1)C(=O)N[C@H](C(=O)NCCc1noc(C2CC2)n1)CC(=O)N(C)[C@@H](CC(C)C)C(=O)N(C)C1(CC1)C(=O)N[C@H](Cc1ccccc1)CO3 [Example 553, (8R,14S,18S)-8-benzyl-N-(2-(5-cyclopropyl-1,2,4-oxadiazol-3-yl)ethyl)-14-isobutyl-2,12,15-trimethyl-10,13,16,20-tetraoxo-7,8,9,10,13,14,15,16,17,18,19,20-dodecahydro-12H-spiro[benzofuro[7,6-p][1]oxa[4,7,10,14]tetraazacycloheptadecine-11,1′-cyclopropane]-18-carboxamide]",287 nM,304%,,

# Further lines, with some results ahead:
EC50 [1],Emax [2],SMILES,EC50 [5],other results
75 nM,318%,"Cc1cc(CCNC(=O)[C@@H]2CC(=O)N(C)[C@@H](CC(C)C)C(=O)N3CCN(CC(C)C)C[C@@H]3C(=O)N[C@H](Cc3ccccc3)COc3ccc4ccccc4c3C(=O)N2)on1 [Example 617, (4aR,7R,18S,22S)-7-benzyl-3,22-diisobutyl-21-methyl-N-(2-(3-methylisoxazol-5-yl)ethyl)-5,16,20,23-tetraoxo-2,3,4,4a,5,6,7,8,16,17,18,19,20,21,22,23-hexadecahydro-1H-naphtho[1,2-p]pyrazino[2,1-f][1]oxa[4,7,10,14]tetraazacycloheptadecine-18-carboxamide]",,
60 nM,339%,"CC(C)C[C@H]1C(=O)N2CCN(c3ccccc3)C[C@H]2C(=O)N[C@H](Cc2ccccc2)COc2cnc3ccc(F)cc3c2C(=O)N[C@H](C(=O)NCCc2cc(C3CC3)no2)CC(=O)N1C [Example 524, (9S,13S,19aR,22R)-22-benzyl-N-(2-(3-cyclopropylisoxazol-5-yl)ethyl)-5-fluoro-13-isobutyl-12-methyl-7,11,14,20-tetraoxo-18-phenyl-7,8,9,10,11,12,13,14,17,18,19,19a,20,21,22,23-hexadecahydro-16H-pyrazino[2′,11:6,7][1]oxa[4,7,10,14]tetraazacycloheptadecino[17,16-c]quinoline-9-carboxamide]",,
221 nM,352%,"COc1cc(CCNC(=O)[C@@H]2CC(=O)N(C)[C@@H](CC(C)C)C(=O)N3CCCC[C@@H]3C(=O)N[C@H](Cc3ccccc3)COc3cc(C)nc(OC)c3C(=O)N2)on1 [Example 533, (7S,11S,17aR,20R)-20-benzyl-11-isobutyl-4-methoxy-N-(2-(3-methoxyisoxazol-5-yl)ethyl)-2,10-dimethyl-5,9,12,18-tetraoxo-5,6,7,8,9,10,11,12,15,16,17,17a,18,19,20,21-hexadecahydro-14H-dipyrido[2,1-f:3′,4′-p][1]oxa[4,7,10,14]tetraazacycloheptadecine-7-carboxamide]",,
318 nM,211%,"CCN1C(=O)C[C@@H](C(=O)NCCc2cc(C)no2)NC(=O)c2c(cnc3ccccc23)OC[C@@H](Cc2ccccc2)NC(=O)[C@H]2CCCCN2C(=O)[C@@H]1CC(C)C [Example 506, (9S,13S,19aR,22R)-22-benzyl-12-ethyl-13-isobutyl-N-(2-(3-methylisoxazol-5-yl)ethyl)-7,11,14,20-tetraoxo-7,8,9,10,11,12,13,14,17,18,19,19a,20,21,22,23-hexadecahydro-16H-pyrido[2′,1′:6,7][1]oxa[4,7,10,14]tetraazacycloheptadecino[17,16-c]quinoline-9-carboxamide]",,
